From patent US12545658B2, “Pyridine derivatives as calcium-activated chloride channel modulators” (TMEM16A LIMITED, priority 2019, dated 2026)

Columns and labels:
[1] = molecular target: T1, human TMEM16A (TMEM16Aabc variant) (Homo sapiens, UniProt Q5XXA6); assay: Automated whole-cell patch clamp (QPatch) TMEM16A potentiator assay in FRT cells stably expressing human TMEM16A; format: cell-based; details: for QPatch TMEM16A % Potentiation @ 370 nM: 370 nM test compound; for QPatch TMEM16A % Potentiation @ 370 nM / QPatch TMEM16A % Potentation @ 3.3 μM: percentage increase of baseline TMEM16A current; for QPatch TMEM16A % Potentation @ 3.3 μM: 3.3 μM test compound; for EC50: FRT-TMEM16A cells, whole-cell patch clamp, peak current at +70 mV, intracellular calcium at EC20; for EC50 compared with Compound B: indole compounds versus comparator Compound B; for maximum potentiation of TMEM16A compared with Compound B: versus comparator Compound B
T1 construct: human TMEM16A (TMEM16Aabc variant)
T1 sequence (Q5XXA6 1-986): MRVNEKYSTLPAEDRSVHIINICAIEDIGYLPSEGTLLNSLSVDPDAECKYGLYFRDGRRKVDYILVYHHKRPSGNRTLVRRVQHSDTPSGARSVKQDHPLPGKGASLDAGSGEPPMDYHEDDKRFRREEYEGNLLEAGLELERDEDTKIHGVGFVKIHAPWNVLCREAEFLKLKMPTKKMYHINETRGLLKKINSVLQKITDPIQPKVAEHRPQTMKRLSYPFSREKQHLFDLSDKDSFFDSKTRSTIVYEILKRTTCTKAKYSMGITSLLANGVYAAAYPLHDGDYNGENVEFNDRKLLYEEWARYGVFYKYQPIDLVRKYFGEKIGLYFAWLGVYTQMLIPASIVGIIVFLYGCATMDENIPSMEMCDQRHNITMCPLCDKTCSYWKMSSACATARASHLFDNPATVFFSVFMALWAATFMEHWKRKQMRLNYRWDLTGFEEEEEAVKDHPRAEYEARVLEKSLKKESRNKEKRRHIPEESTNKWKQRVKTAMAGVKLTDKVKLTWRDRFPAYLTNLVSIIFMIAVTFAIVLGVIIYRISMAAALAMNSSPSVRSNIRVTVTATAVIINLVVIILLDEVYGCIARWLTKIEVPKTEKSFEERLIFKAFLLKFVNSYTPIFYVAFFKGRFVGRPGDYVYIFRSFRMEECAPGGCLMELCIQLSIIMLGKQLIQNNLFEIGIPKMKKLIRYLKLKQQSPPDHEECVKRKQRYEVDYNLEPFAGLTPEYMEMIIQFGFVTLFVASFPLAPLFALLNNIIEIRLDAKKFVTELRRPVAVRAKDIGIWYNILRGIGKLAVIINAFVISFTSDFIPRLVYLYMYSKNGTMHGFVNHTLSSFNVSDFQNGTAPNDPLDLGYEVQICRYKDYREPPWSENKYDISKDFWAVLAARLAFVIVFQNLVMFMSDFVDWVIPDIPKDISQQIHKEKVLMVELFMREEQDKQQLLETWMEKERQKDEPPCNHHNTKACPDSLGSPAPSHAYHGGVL
Protocol: Fisher rat thyroid (FRT) cells stably expressing human TMEM16A (TMEM16Aabc variant; Dr Luis Galietta, Insituto Giannina, Italy) were cultured in T-75 flasks in Hams F-12 media with Coon's modification (Sigma) supplemented with 10% (v/v) foetal bovine serum, penicillin-streptomycin (10,000 U/mL/10000 μg/mL), G-418 (750 μg/mL), L-glutamine (2 mM) and sodium bicarbonate solution (7.5% v/v). At ˜90% confluence cells were harvested for experiments by detachment with a 2:1 (v/v) mixture of Detachin (BMS Biotechnology) and 0.25% (w/v) trypsin-EDTA.
FRT-TMEM16A cells were whole-cell patch clamped using an automated planar patch clamp system (Qpatch, Sophion). Briefly, once high resistance (GOhm) seals were established between the cells and the planar recording array the patch was ruptured using suction pulses to establish the whole-cell recording configuration of the patch clamp technique. The assay employed the following solutions (all reagents Sigma): Intracellular solution (mM): N-methyl-D-glucamine 130, CaCl2 18.2, MgCl2 1, HEPES 10, EGTA 10, BAPTA 20, Mg-ATP 2, pH 7.25, 325 mOsm with sucrose.
Extracellular solution (mM): N-methyl-D-glucamine 130, CaCl2 2, MgCl2 1, HEPES 10, pH 7.3, 320 mOsm with sucrose.
The intracellular solution buffers intracellular calcium at levels required to give ˜20% activation of the maximal TMEM16A mediated current (EC20 for calcium ions). Cells were voltage clamped at a holding potential of −70 mV and a combined voltage step (to +70 mV)/ramp (−90 my to +90 mV) was applied at 0.05 Hz. After a period of current stabilisation test compounds, solubilised in 100% (v/v) DMSO and subsequently diluted into extracellular solution, were applied to generate a cumulative concentration response curve. Each concentration of test compound was incubated for 5 minutes before addition of the next concentration. After the final concentration was tested a supramaximal concentration of either a known active positive modulator or the TMEM16A inhibitor, CaCCinhA01 (Del La Fuente et al, 2008) was added to define the upper and lower limits of the assay.
Compound activity was quantified by measuring the increase in current upon compound addition and expressing this as a percentage increase of baseline TMEM16A current level.
In FIG. 1, IBL equals baseline current, I[#1] equals the peak current during test compound concentration 1 incubation period and so on.
Peak TMEM16A current at +70 mV was plotted as a function of time over the assay period. Baseline current (IBL) was measured after a period of stabilisation. The increase in current for each compound addition was determined by taking the peak current during the incubation period and subtracting the current from the previous recording period and then expressing this as a percentage of the baseline current (% potentiation). For test compound concentration 1 in FIG. 1 this is: (I[#1]−IBL/IBL)×100 For each additional concentration tested the increase in current was determined by subtracting the current from the previous incubation period and normalising the baseline value—for test concentration 2 in FIG. 1 this is: (I[#2]−I[#1])/IBL)×100 The values for each test concentration were plotted as a cumulative function of concentration eg. for test concentration two this would be the sum of the peak changes measured during concentration one plus concentration two.

[2] = Microsomal stability (human microsomes); format: in vitro ADME; details: pH 7.4, 1 μM compound, 0.5 mg/mL protein, 1 mM NADPH, 37° C., read-out: Human Microsome Clint
Protocol: Microsomes (human) were obtained from Bioreclamation.
All Test and reference control compounds (raloxifene, diclofenac, terfenadine, propranolol, dextromethorphan and metoprolol) were dissolved to create a 100 μM stock (final concentrations; 91.5% Acetonitrile: 8.5% DMSO). Final test compound concentration in incubation was 1 μM (<0.1% DMSO).
Solution 1: 17.4 g potassium phosphate dibasic anhydrous (K2HPO4, 0.1 M) dissolved in 1 L deionised water. Solution 2: 13.6 g potassium phosphate monobasic anhydrous (KH2PO4, 0.1 M) dissolved in 1 L deionised water. pH7.4 with 2 mM magnesium chloride. NADPH (10 mM) is prepared in deionised water. Microsomes (all species) were removed from the −80° C. thawed at 37° C. Microsomes were diluted in assay buffer to achieve a final protein concentration of 0.5 mg/mL and 1 mM NADPH.
The following procedure was completed on a Perkin Elmer Janus robotic platform in 96 well format: The microsomal incubation plate was transferred to a heater shaker at 300 rpm and solution heated to 37° C. for 10 min pre-warm. A no co-factor control at 0 and 45 min and one replicates of each test compound was included in every assay. Microsomes were incubated at 37° C., on a shaker set at 300 rpm throughout the assay. […]

| SMILES | QPatch TMEM16A % Potentiation @ 370 nM [1] [%] | QPatch TMEM16A % Potentation @ 3.3 μM [1] [%] | EC50 [1] [nM] | EC50 compared with Compound B [1] | maximum potentiation of TMEM16A compared with Compound B [1] | microsomal CLint at 1 μM [2] [µL/min/mg] |
| --- | --- | --- | --- | --- | --- | --- |
| C#CC(C)(C)NC(=O)c1cc(NC(=O)Cc2ccc3cc[nH]c3c2)ccn1 [Example 1, N-(1,1-Dimethylprop-2-ynyl)-4-[[2-(1H-indol-6-yl)acetyl]amino]pyridine-2-carboxamide] | 50 | 38 | 20 | lower EC50 values than Compound B | – | – |
| CC(C)(NC(=O)c1cc(NC(=O)Cc2ccc3cn[nH]c3c2)ccn1)C(F)(F)F [Example 4.1, 4-[[2-(1H-Indazol-6-yl)acetyl]amino]-N-(2,2,2-trifluoro-1,1-dimethyl-ethyl)pyridine-2-carboxamide] | 96 | 118 | 90 | – | – | – |
| O=C(Cc1ccc2cn[nH]c2c1)Nc1ccnc(C(=O)NC2(C(F)F)CC2)c1 [Example 11.4, N-[1-(Difluoromethyl)cyclopropyl]-4-[[2-(1H-indazol-6-yl)acetyl]amino] pyridine-2-carboxamide] | 85 | 132 | 210 | – | – | – |
| CC1(NC(=O)c2cc(NC(=O)Cc3ccc4cc[nH]c4c3)ccn2)CC(F)(F)C1 [Example 13.1, N-(3,3-Difluoro-1-methyl-cyclobutyl)-4-[[2-(1H-indol-6-yl)acetyl]amino] pyridine-2-carboxamide] | 113 | 115 | 50 | lower EC50 values than Compound B | improved maximum potentiation of TMEM16A | 199 |
| O=C(Cc1cc2[nH]ncc2cc1F)Nc1ccnc(C(=O)NC2(C(F)(F)F)CC2)c1 [Example 6.1, 4-[[2-(5-Fluoro-1H-indazol-6-yl)acetyl]amino]-N-[1-(trifluoromethyl)cyclopropyl]pyridine-2-carboxamide] | 107 | 153 | 140 | – | – | – |
| C#CC(C)(C)NC(=O)c1cc(NC(=O)Cc2cccc3cc[nH]c23)ccn1 [Compound B, reference compound] | 42 | 64 | – | – | – | 46 |
| N#CC1(NC(=O)c2cc(NC(=O)Cc3ccc4cc[nH]c4c3)ccn2)CCOCC1 [Example 13.2, N-(4-Cyanotetrahydropyran-4-yl)-4-[[2-(1H-indol-6-yl)acetyl]amino] pyridine-2-carboxamide] | 98 | 134 | 130 | lower EC50 values than Compound B | improved maximum potentiation of TMEM16A | – |

Other lines, results leading:

| QPatch TMEM16A % Potentiation @ 370 nM [1] [%] | QPatch TMEM16A % Potentation @ 3.3 μM [1] [%] | EC50 [1] [nM] | EC50 compared with Compound B [1] | maximum potentiation of TMEM16A compared with Compound B [1] | microsomal CLint at 1 μM [2] [µL/min/mg] | SMILES |
| --- | --- | --- | --- | --- | --- | --- |
| 65 | 98 | 210 | – | – | – | CC(C)(C)NC(=O)c1cc(NC(=O)Cc2ccc3c(C(F)(F)F)n[nH]c3c2)ccn1 [Example 8, N-tert-Butyl-4-[[2-[3-(trifluoromethyl)-1H-indazol-6-yl]acetyl]amino]pyridine-2-carboxamide] |
| 145 | 173 | 70 | – | improved maximum potentiation of TMEM16A | – | O=C(Cc1ccc2cc[nH]c2c1)Nc1ccnc(C(=O)NC2(C(F)(F)F)CC2)c1 [Example 1.1, 4-[[2-(1H-indol-6-yl)acetyl]amino]-N-[1-(trifluoromethyl)cyclopropyl]pyridine-2-carboxamide] |
| 43 | 223 | 1930 | – | – | – | C#CC(C)(C)NC(=O)c1cc(NC(=O)Cc2cccc3[nH]ncc23)ccn1 [Compound A, reference compound] |
| 96 | 237 | 10 | – | – | – | C#CC1(NC(=O)c2cc(NC(=O)Cc3ccc4cn[nH]c4c3)ccn2)CCCC1 [Example 4, N-(1-Ethynylcyclopentyl)-4-[[2-(1H-indazol-6-yl)acetyl]amino]pyridine-2-carboxamide] |
| 113 | 200 | 280 | – | – | – | CC(C)c1n[nH]c2cc(CC(=O)Nc3ccnc(C(=O)NC(C)(C)C)c3)ccc12 [Example 9, N-tert-Butyl-4-[[2-(3-isopropyl-1H-indazol-6-yl)acetyl]amino]pyridine-2-carboxamide] |
| 69 | 113 | 250 | – | – | – | O=C(Cc1ccc2cn[nH]c2c1)Nc1ccnc(C(=O)NC2CCCC2(F)F)c1 (stereo not shown) [Example 5.3, N-(2,2-Difluorocyclopentyl)-4-[[2-(1H-indazol-6-yl)acetyl]amino]pyridine-2-carboxamide] |
